Test results: patent publication US10376499B2, “Combination therapy for treatment of resistant bacterial infections” (priority 2014, dated 2019)
Where a name gives a salt, the structure may show the parent alone. Read-outs that look alike come from different tables or passages of the source.

Key:
Enterobacter cloacae = assay: MIC, recent Enterobacteriaceae clinical isolates: Enterobacter cloacae (Examples 7, 11); format: cell-based
A. baumannii [1] = assay: MIC, 20 diverse recent strains of A. baumannii (Example 10); format: cell-based, Acinetobacter baumannii; conditions: N 20 A. baumannii strains
Klebsiella pneumoniae = assay: MIC, recent Enterobacteriaceae clinical isolates: Klebsiella pneumoniae (Examples 7, 11)
A. baumannii [2] = assay: Neutropenic mouse thigh and lung infection models; conditions: neutropenic CD-1 mice, subcutaneous q3h, sulbactam+compound 1 at 4:1 ratio, 24 h, isolate containing AmpC, OXA-66, OXA-72, TEM-1, FIG. 4
Citrobacter spp = assay: MIC, recent Enterobacteriaceae clinical isolates: Citrobacter spp (Examples 7, 11); format: cell-based; conditions: for MIC: read-out: MIC
Escherichia coli = assay: MIC, recent Enterobacteriaceae clinical isolates: Escherichia coli (Examples 7, 11); conditions: Escherichia coli
Enterobacteriaceae = assay: organism not typed; format: cell-based

CC1=C[C@@H]2CN(C(=O)N2OS(=O)(=O)O)[C@@H]1C(N)=O [Compound 1, (2S,5R)-2-carbamoyl-3-methyl-7-oxo-1,6-diazabicyclo[3.2.1]oct-3-en-6-yl hydrogen sulfate]
MIC (Enterobacter cloacae; Enterobacter cloacae ARC4438, AmpC+, read-out: MIC): 2 µg/mL
MIC (Enterobacter cloacae; Enterobacter cloacae ARC4439, AmpC+, LAP-2+, read-out: MIC): 0.5 µg/mL
MIC (Enterobacter cloacae; Enterobacter cloacae ARC4444, AmpC+, MIR-8[I175L]): 4 µg/mL
MIC (Enterobacter cloacae; Enterobacter cloacae ARC4458, AmpC+, ACT-2[V312M]): 8 µg/mL
MIC (Enterobacter cloacae; Enterobacter cloacae ARC4461, AmpC+, TEM-1, read-out: MIC): 0.25 µg/mL
MIC (Enterobacter cloacae; Enterobacter cloacae ARC4462, AmpC+, read-out: MIC): 0.5 µg/mL
MIC (Enterobacter cloacae; Enterobacter cloacae ARC4473, SHV-5+, AmpC+, DHA-1+, TEM-1+, read-out: MIC): 0.5 µg/mL
MIC (Enterobacter cloacae; Enterobacter cloacae ARC4489, AmpC+, read-out: MIC): 1 µg/mL
MIC (Enterobacter cloacae; Enterobacter cloacae ARC4492, AmpC+, read-out: MIC): 0.5 µg/mL
MIC (Enterobacter cloacae; Enterobacter cloacae ARC4494, OXA-1+, DHA-1+, AmpC+, read-out: MIC): 0.25 µg/mL
MIC90 (Enterobacter cloacae; N 10): 4 µg/mL
MIC range (Enterobacter cloacae; N 10): 0.25 to 8 µg/mL
MIC50 (Enterobacter cloacae; N 10, read-out: MIC50): 0.5 µg/mL
MIC50 (A. baumannii [1]): 64 µg/mL
MIC90 (A. baumannii [1]): > 64 µg/mL
MIC Max (A. baumannii [1]): > 64 µg/mL
MIC Min (A. baumannii [1]): 16 µg/mL
MIC50 (Klebsiella pneumoniae): 1 µg/mL
MIC90 (Klebsiella pneumoniae): 4 µg/mL
MIC (Klebsiella pneumoniae; Klebsiella pneumoniae ARC4414, SHV-11): 2 µg/mL
MIC (Klebsiella pneumoniae; Klebsiella pneumoniae ARC4420, SHV-11, SHV-12, DHA-1, OXA-1): 1 µg/mL
MIC (Klebsiella pneumoniae; Klebsiella pneumoniae ARC4427, SHV-1, OXA-1): 0.25 µg/mL
MIC (Klebsiella pneumoniae; Klebsiella pneumoniae ARC4434, SHV-11): 2 µg/mL
MIC (Klebsiella pneumoniae; Klebsiella pneumoniae ARC4435, SHV-157): 0.25 µg/mL
MIC (Klebsiella pneumoniae; Klebsiella pneumoniae ARC4446, SHV-11): 2 µg/mL
MIC (Klebsiella pneumoniae; Klebsiella pneumoniae ARC4451, SHV-11, KPC-3): 0.5 µg/mL
MIC (Klebsiella pneumoniae; Klebsiella pneumoniae ARC4457, SHV-11, DHA-1): 0.5 µg/mL
MIC (Klebsiella pneumoniae; Klebsiella pneumoniae ARC4460, SHV-11, CTX-M15, OXA-1, NDM-1): 4 µg/mL
MIC (Klebsiella pneumoniae; Klebsiella pneumoniae ARC4467, SHV-33, TEM-1, OXA-1, DHA-1): 4 µg/mL
MIC (Klebsiella pneumoniae; Klebsiella pneumoniae ARC4468, SHV-1): 8 µg/mL
MIC (Klebsiella pneumoniae; Klebsiella pneumoniae ARC4476, SHV-11, KPC-2, OXA-9[W117*]): 4 µg/mL
MIC (Klebsiella pneumoniae; Klebsiella pneumoniae ARC4480, SHV-27): 0.5 µg/mL
MIC (Klebsiella pneumoniae; Klebsiella pneumoniae ARC4483, SHV-11): 1 µg/mL
MIC (Klebsiella pneumoniae; Klebsiella pneumoniae ARC4484, SHV-168): 1 µg/mL
MIC (Klebsiella pneumoniae; Klebsiella pneumoniae ARC4488, SHV-11, CTX-M15, OXA-1, TEM-1): 0.25 µg/mL
MIC (Klebsiella pneumoniae; Klebsiella pneumoniae ARC4490, SHV-11, CTX-M15, KPC-2, OXA-1): 0.5 µg/mL
MIC (Klebsiella pneumoniae; Klebsiella pneumoniae ARC4495, SHV-60, LAP-2): 4 µg/mL
efficacy (mean delta log CFU) (A. baumannii [2]): recover the activity
MIC (Citrobacter spp; Citrobacter braakii ARC3660, CTX-M-15): 0.25 µg/mL
MIC (Citrobacter spp; Citrobacter freundii ARC3522, AmpC, TEM-1, CMY65): 0.5 µg/mL
MIC (Citrobacter spp; Citrobacter freundii ARC3883, KPC-2): 32 µg/mL
MIC (Citrobacter spp; Citrobacter freundii ARC3884, KPC-2): 4 µg/mL
MIC (Citrobacter spp; Citrobacter freundii ARC3885, AmpH, TEM-1, SHV-5, CMY-6, CMY-13): 4 µg/mL
MIC (Citrobacter spp; Citrobacter koseri ARC2001, ESBL): 0.5 µg/mL
MIC (Citrobacter spp; Citrobacter koseri ARC2002, ESBL): 0.5 µg/mL
MIC range (Citrobacter spp; Citrobacter spp, N 7): 0.25 to 4 µg/mL
MIC50 (Citrobacter spp; Citrobacter spp, N 7, read-out: MIC50): 0.5 µg/mL
MIC90 (Citrobacter spp; Citrobacter spp, N 7, read-out: MIC90): 4 µg/mL
MIC (Escherichia coli): 0.125 µg/mL
MIC50 (Escherichia coli): 0.5 µg/mL
MIC90 (Escherichia coli): 4 µg/mL
MIC (Escherichia coli; ATCC25922, Escherichia coli ARC4, none (ATCC 25922) CLSI control): 8 µg/mL
MIC (Escherichia coli; Escherichia coli ARC4416, CTX-M-14+, TEM-1+): 0.5 µg/mL
MIC (Escherichia coli; Escherichia coli ARC4418, CTX-M-14+, CMY-2+): 0.25 µg/mL
MIC (Escherichia coli; Escherichia coli ARC4419, SHV-12+): 0.25 µg/mL
MIC (Escherichia coli; Escherichia coli ARC4421, CTX-M-55, TEM-1+, CMY-2+): 0.25 µg/mL
MIC (Escherichia coli; Escherichia coli ARC4429, TEM-1+, CMY-2+): 0.25 µg/mL
MIC (Escherichia coli; Escherichia coli ARC4432, CTX-M-14+, TEM-1+, CMY-2+): 0.25 µg/mL
MIC (Escherichia coli; Escherichia coli ARC4436, CTX-M-14+, TEM-1+): 0.25 µg/mL
MIC (Escherichia coli; Escherichia coli ARC4449, CMY-2+, TEM-1+): 0.5 µg/mL
MIC (Escherichia coli; Escherichia coli ARC4450, TEM-1+, OXA-1+, CMY-2+): 2 µg/mL
MIC (Escherichia coli; Escherichia coli ARC4452, SHV-12+): 0.25 µg/mL
MIC (Escherichia coli; Escherichia coli ARC4455, SHV-12+): 0.25 µg/mL
MIC (Escherichia coli; Escherichia coli ARC4465, CMY-2+): 0.25 µg/mL
MIC (Escherichia coli; Escherichia coli ARC4471, CMY-2+, OXA-1+, TEM-1+): 4 µg/mL
MIC (Escherichia coli; Escherichia coli ARC4472, CMY-2+, TEM-1+): 2 µg/mL
MIC (Escherichia coli; Escherichia coli ARC4477, CTX-M-15+, TEM-1+): 2 µg/mL
MIC (Escherichia coli; Escherichia coli ARC4478, CTX-M-15+, CMY-2+): 0.5 µg/mL
MIC (Escherichia coli; Escherichia coli ARC4479, CMY-42+, OXA-1+, OXA-9+, TEM-1+): 32 µg/mL
MIC (Escherichia coli; Escherichia coli ARC4485, CMY-2+, OXA-1+, CTX-M-15+): 0.5 µg/mL
MIC (Escherichia coli; Escherichia coli ARC4487, SHV-5+, DHA-1+, TEM-1+, OXA-1+, CMY-2+): 4 µg/mL
MIC50 (Enterobacteriaceae): 0.5 µg/mL
MIC90 (Enterobacteriaceae): 4 µg/mL
MIC range (Enterobacteriaceae; Total Enterobacteriaceae, N 59): 0.125 to 32 µg/mL
